Measurements reported in US10874743B2, “IRAK degraders and uses thereof” (Kymera Therapeutics, Inc., priority 2017, dated 2020).
Each block holds one molecule with its values, some of them ahead of it.

Legend:
[1] = target: CRBN-DDB1 / GST-IRAK4 ternary complex (Homo sapiens, UniProt Q96SW2+Q9NWZ3); test: AlphaLISA assay to determine ternary complex formation; assay type: binding
Description: The assay mixture contains 100 nM CRBN-DDB1, 100 nM GST-IRAK4, 20 μg/mL Nickle Chelate Donor Bead (Perkin Elmer Catalog # AS101D) and 20 μg/mL GSH Acceptor Bead (Perkin Elmer Catalog # AL109C) in a buffer containing 50 mM HEPES, pH 7.5, 100 mM NaCl, 0.1% BSA, 2 mM TCEP, 0.05% Tween-20. […] AlphaLISA signals (Excitation 680 nm and emission 615 nm) were recorded on a Perkin Elmer EnVision 2104 Multilabel reader. The raw data was converted to the relative amount of ternary complex formation by normalization to the signal generated by His-tagged GST protein only. The final data points were plotted and the curves were fit using non-linear regression using GraphPad Prism software.

[2] = target: T1, IRAK4 (Homo sapiens, UniProt Q9NWZ3); test: OCI-LY-10 degradation assay (western blot, % IRAK4 degraded after 4 hours); assay type: cell-based; set-up: endogenous in cells; host or cells: OCI-LY10; settings: OCI-LY10 cells, IRAK4 degraded after 4 hours, western blot
T1 sequence (Q9NWZ3 1-460): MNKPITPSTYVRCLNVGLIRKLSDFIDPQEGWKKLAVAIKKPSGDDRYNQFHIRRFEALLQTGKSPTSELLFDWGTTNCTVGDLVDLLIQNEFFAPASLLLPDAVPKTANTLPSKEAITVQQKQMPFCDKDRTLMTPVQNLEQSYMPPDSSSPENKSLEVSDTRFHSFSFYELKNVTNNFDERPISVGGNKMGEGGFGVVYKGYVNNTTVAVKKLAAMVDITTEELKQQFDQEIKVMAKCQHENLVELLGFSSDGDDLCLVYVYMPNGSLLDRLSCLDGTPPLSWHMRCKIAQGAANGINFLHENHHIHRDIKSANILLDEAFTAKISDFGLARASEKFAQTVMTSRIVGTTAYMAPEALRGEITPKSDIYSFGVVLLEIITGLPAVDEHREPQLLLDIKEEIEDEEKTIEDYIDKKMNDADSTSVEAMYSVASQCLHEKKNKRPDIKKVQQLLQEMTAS
Summary of the method: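 OCI-LY10 cells (RPMI-1640, 20% FBS, 55 μM 2-ME) treated with compound at 0.003-10 μM final for 4 h at 37° C, then lysed in RIPA buffer. IRAK4 level read by fluorescent western blot (20-25 μg protein) and binned as % degraded: A >50%, B >20-50%, C <20%.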

[3] = target: T1, IRAK4; test: PBMC degradation assay (western blot, % IRAK4 degraded after 4 hours); assay type: cell-based; settings: human PBMCs
Description: Protocol summary of PBMC degradation studies from compound treatment through quantitation.
PBMC culture medium: Human peripheral blood mononuclear cells (PBMCs): RPMI+10% FBS (Heat-inactivated)+1% P/S.
Cells were cultured at a minimum of 2.5×10^6 c/mL. • PBMCs were incubated @ 37° C./5% CO2 and allowed to rest overnight. • Following overnight recovery, a cell count/viability assessment by trypan blue exclusion was performed. Cells densities were adjusted back to 2.5×10^6 c/mL (proceed with plating only if viability >80%). • In a 6 well plate, 2.0 mL of cells were added to each well for a minimum of 5×10^6 CT per treatment condition. Compounds dilutions were prepared from 20 mM stock and were added at a final 1000× dilution (0.1% DMSO concentration). • At the end of treatment, cells were harvested and spun @ 1800 rpm for 5 min. 1×PBS wash and spun again @ 1800 rpm for 5 min. Cell pellets were frozen and stored at −80° C. until further processing. • Lysates were generated by resuspending in lysis buffer. Protein quantification was performed with a BCA kit. • 20 μg of protein were loaded per lane and run on a 26-well 4-12% Bis-Tris SDS-page gel. • Transfers were performed on PVDF membranes using the BioRad Mixed MW turbo program for 7 min. • Membranes were blocked for one hour on a rocker at room temperature. • Primary antibodies were incubated overnight at 4° C. on a rocker. • Membranes were washed 3×TBST, 5 min each. • Secondaries were added and incubated for one hour on a rocker at room temperature. • Membranes were washed 3×TBST, 5 min each and rinsed well with deionized H2O. Membranes were scanned using the Licor Odessey CLx and bands were quantified using Image Studio Lite Version 5.2 software.
PBMC results at 4 hours. The letter codes indicate the percentage of IRAK4 degraded after 4 hours: A (>50% degradation), B (>20-50% degradation) and C (<20% degradation)

Sequence of CRBN-DDB1 / GST-IRAK4 ternary complex (Q96SW2 whole entry, one chain of several): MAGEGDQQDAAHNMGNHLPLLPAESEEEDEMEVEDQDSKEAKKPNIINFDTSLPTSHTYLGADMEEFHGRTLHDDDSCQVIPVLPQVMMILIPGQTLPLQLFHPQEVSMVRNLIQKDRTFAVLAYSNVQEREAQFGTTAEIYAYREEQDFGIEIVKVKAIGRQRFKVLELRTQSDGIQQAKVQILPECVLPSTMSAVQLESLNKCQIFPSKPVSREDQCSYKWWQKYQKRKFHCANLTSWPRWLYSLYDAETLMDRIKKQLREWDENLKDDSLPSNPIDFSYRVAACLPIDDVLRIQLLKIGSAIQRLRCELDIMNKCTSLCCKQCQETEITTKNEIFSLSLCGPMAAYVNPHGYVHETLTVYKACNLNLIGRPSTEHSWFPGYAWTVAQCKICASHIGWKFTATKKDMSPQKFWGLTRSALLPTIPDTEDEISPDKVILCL
Sequence of CRBN-DDB1 / GST-IRAK4 ternary complex (Q16531 whole entry partner, one chain of several): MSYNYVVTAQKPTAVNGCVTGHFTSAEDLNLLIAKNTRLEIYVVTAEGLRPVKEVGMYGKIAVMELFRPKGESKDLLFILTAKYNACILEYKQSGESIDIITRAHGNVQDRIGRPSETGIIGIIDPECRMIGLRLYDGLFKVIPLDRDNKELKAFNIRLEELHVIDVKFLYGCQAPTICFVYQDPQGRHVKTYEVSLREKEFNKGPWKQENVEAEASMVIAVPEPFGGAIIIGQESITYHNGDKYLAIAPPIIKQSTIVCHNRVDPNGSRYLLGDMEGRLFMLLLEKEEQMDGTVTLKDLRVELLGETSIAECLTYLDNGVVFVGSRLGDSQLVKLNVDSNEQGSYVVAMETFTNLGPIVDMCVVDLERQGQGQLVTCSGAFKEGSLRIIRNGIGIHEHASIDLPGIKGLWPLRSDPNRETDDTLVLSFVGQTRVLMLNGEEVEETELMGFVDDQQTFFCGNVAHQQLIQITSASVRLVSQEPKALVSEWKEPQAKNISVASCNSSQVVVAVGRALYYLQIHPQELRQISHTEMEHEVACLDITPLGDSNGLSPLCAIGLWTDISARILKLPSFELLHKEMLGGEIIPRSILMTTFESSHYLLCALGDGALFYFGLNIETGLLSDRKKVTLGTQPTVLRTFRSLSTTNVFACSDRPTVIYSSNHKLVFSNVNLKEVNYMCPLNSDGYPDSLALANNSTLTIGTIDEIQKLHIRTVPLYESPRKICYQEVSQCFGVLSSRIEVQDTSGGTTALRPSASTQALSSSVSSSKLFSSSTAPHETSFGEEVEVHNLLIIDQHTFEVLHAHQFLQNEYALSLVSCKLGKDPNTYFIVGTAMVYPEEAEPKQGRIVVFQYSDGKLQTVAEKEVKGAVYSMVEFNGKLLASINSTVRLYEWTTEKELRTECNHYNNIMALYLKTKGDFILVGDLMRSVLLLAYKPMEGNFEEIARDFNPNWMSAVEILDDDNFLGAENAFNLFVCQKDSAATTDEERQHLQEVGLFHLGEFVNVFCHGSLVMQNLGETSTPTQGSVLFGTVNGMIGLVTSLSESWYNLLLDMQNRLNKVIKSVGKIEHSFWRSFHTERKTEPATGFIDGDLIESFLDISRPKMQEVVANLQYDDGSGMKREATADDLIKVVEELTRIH

SMILES: NC(=O)c1nn(-c2cccc(C(=O)NCCOCCOCCNc3cccc4c3C(=O)N(C3CCC(=O)NC3=O)C4=O)c2)cc1NC(=O)c1coc(-c2ccnc(NCC(F)(F)F)c2)n1 (stereo not shown) [I-135]
- Average % Ternary Complex (N = 2) ([1]; compound concentration 1.00E−07 M): 4.16%
- Average % Ternary Complex (N = 2) ([1]; compound concentration 1.25E−08 M): 0.76%
- Average % Ternary Complex (N = 2) ([1]; compound concentration 1.28E−05 M): 0.61%
- Average % Ternary Complex (N = 2) ([1]; compound concentration 1.60E−06 M): 0.67%
- Average % Ternary Complex (N = 2) ([1]; compound concentration 2.00E−07 M): 6.15%
- Average % Ternary Complex (N = 2) ([1]; compound concentration 2.50E−08 M): 1.05%
- Average % Ternary Complex (N = 2) ([1]; compound concentration 3.20E−06 M): 0.57%
- Average % Ternary Complex (N = 2) ([1]; compound concentration 4.00E−07 M): 4.22%
- Average % Ternary Complex (N = 2) ([1]; compound concentration 5.00E−08 M): 2.54%
- Average % Ternary Complex (N = 2) ([1]; compound concentration 6.25E−09 M): 0.55%
- Average % Ternary Complex (N = 2) ([1]; compound concentration 6.40E−06 M): 0.5%
- Average % Ternary Complex (N = 2) ([1]; compound concentration 8.00E−07 M): 1.25%
- OCI-LY10 % IRAK4 Degradation [2]: B (>20-50% degradation)

SMILES: NC(=O)c1nn(-c2ccc(C(=O)NCc3cn(CCCNc4cccc5c4C(=O)N(C4CCC(=O)NC4=O)C5=O)nn3)cc2)cc1NC(=O)c1coc(-c2ccnc(NCC(F)(F)F)c2)n1 (stereo not shown) [I-180, N-[3-carbamoyl-1-[4-[[1-[3-[[2-(2,6-dioxo-3-piperidyl)-1,3-dioxo-isoindolin-4-yl]amino]propyl]triazol-4-yl]methylcarbamoyl]phenyl]pyrazol-4-yl]-2-[2-(2,2,2-trifluoroethylamino)-4-pyridyl]oxazole-4-carboxamide]
- PBMC % IRAK4 Degradation [3]: A (>50% degradation)

SMILES: NC(=O)c1nn(C2CCN(C(=O)COCCOCCOCCOCCNc3cccc4c3C(=O)N(C3CCC(=O)NC3=O)C4=O)CC2)cc1NC(=O)c1coc(-c2ccnc(NCC(F)(F)F)c2)n1 (stereo not shown) [I-155]
- PBMC % IRAK4 Degradation [3]: C (<20% degradation)

SMILES: NC(=O)c1nn(-c2ccc(C(=O)NCCCCCCCCCCCNc3cccc4c3C(=O)N(C3CCC(=O)NC3=O)C4=O)cc2)cc1NC(=O)c1coc(-c2ccnc(NCC(F)(F)F)c2)n1 (stereo not shown) [I-133]
- PBMC % IRAK4 Degradation [3]: B (>20-50% degradation)

SMILES: NC(=O)c1nn(-c2ccc(C(=O)NCCOCCNc3cccc4c3C(=O)N(C3CCC(=O)NC3=O)C4=O)cc2)cc1NC(=O)c1coc(-c2ccnc(NCC(F)(F)F)c2)n1 (stereo not shown) [I-130]
- PBMC % IRAK4 Degradation [3]: A (>50% degradation)

Other lines, results leading:

- PBMC % IRAK4 Degradation [3]: B (>20-50% degradation)
SMILES: NC(=O)c1nn(-c2ccc(C(=O)NCCCn3cc(CNc4cccc5c4C(=O)N(C4CCC(=O)NC4=O)C5=O)nn3)cc2)cc1NC(=O)c1coc(-c2ccnc(NCC(F)(F)F)c2)n1 (stereo not shown) [I-183, N-[3-carbamoyl-1-[4-[3-[4-[[[2-(2,6-dioxo-3-piperidyl)-1,3-dioxo-isoindolin-4-yl]amino]methyl]triazol-1-yl]propylcarbamoyl]phenyl]pyrazol-4-yl]-2-[2-(2,2,2-trifluoroethylamino)-4-pyridyl]oxazole-4-carboxamide]

- PBMC % IRAK4 Degradation [3]: C (<20% degradation)
SMILES: NC(=O)c1nn(-c2ccc(C(=O)NCCC#CC#CCCNc3cccc4c3C(=O)N(C3CCC(=O)NC3=O)C4=O)cc2)cc1NC(=O)c1coc(-c2ccnc(NCC(F)(F)F)c2)n1 (stereo not shown) [I-179, N-[3-carbamoyl-1-[4-[8-[[2-(2,6-dioxo-3-piperidyl)-1,3-dioxo-isoindolin-4-yl]amino]octa-3,5-diynylcarbamoyl]phenyl]pyrazol-4-yl]-2-[2-(2,2,2-trifluoroethylamino)-4-pyridyl]oxazole-4-carboxamide]

- PBMC % IRAK4 Degradation [3]: A (>50% degradation)
SMILES: NC(=O)c1nn(-c2ccc(C(=O)NCCOCCNC(=O)COc3cccc4c3C(=O)N(C3CCC(=O)NC3=O)C4=O)cc2)cc1NC(=O)c1coc(-c2ccnc(NCC(F)(F)F)c2)n1 (stereo not shown) [I-110]

- PBMC % IRAK4 Degradation [3]: A (>50% degradation)
SMILES: NC(=O)c1nn(-c2ccc(C(=O)NCCOCCCCCOCCNC(=O)COc3cccc4c3C(=O)N(C3CCC(=O)NC3=O)C4=O)cc2)cc1NC(=O)c1coc(-c2ccnc(NCC(F)(F)F)c2)n1 (stereo not shown) [I-116, N-(3-carbamoyl-1-(4-((2-((5-(2-(2-((2-(2,6-dioxopiperidin-3-yl)-1,3-dioxoisoindolin-4-yl)oxy)acetamido)ethoxy)pentyl)oxy)ethyl)carbamoyl)phenyl)-1H-pyrazol-4-yl)-2-(2-((2,2,2-trifluoroethyl)amino)pyridin-4-yl)oxazole-4-carboxamide]

- PBMC % IRAK4 Degradation [3]: C (<20% degradation)
SMILES: NC(=O)c1nn(C2CN(C(=O)COCCOCCOCCOCCNc3cccc4c3C(=O)N(C3CCC(=O)NC3=O)C4=O)C2)cc1NC(=O)c1coc(-c2ccnc(NCC(F)(F)F)c2)n1 (stereo not shown) [I-157]
